1 molecule from patent publication US20120196854A1, “PHARMACEUTICAL COMPOSITION COMPRISING AROMATIC HETEROCYCLIC COMPOUND” (Kyowa Hakko Kirin Co., Ltd., priority 2009, published 2012) can be followed below.

The test system of the assay is mdx mice. The experiment in a line: Myodegeneration in spontaneous muscular dystrophy model (mdx) mice. The following applies: in drinking water, about 30 mg/kg. The format is in vivo, mouse. The method, then: mdx Mice (C57BL/10ScSn-Dmd^mdx) were purchased in male and female pairs from Jackson Laboratories, and bred in-house for use. After weaned at 3 weeks old, male mdx mice were selected, which were subjected to the test from 4 weeks old. Compound 133 was dissolved in MEYLON 84 (registered trademark, 8.4% sodium bicarbonate injection, Otsuka) to prepare 12 mL of a 3 mg/mL solution thereof. This was added to and mixed with 188 mL of sterile tap water (final concentration of the compound: 180 μg/mL), and the mixture was administered by unrestricted intake (actual dose of the compound was about 30 mg/kg). […]
As evaluation of the diaphragm muscle, the degenerated and/or necrotic muscle area ratio of the diaphragm was determined. […] The thus prepared specimen was digitally shot at 20-fold magnification using a digital microscope (VHX-1000, KEYENCE, Osaka) and the images were recorded in TIFF format. Using the nature that degenerated and/or necrotic muscle absorbs EB and turns blue (J. Anat., 2002, 200, 69-79), the area of the diaphragm piece and the area of blue region showing the distribution of degenerated and/or necrotic muscle were determined with an image analyzer (LUZEX AP, Nireco, Tokyo). […]
For evaluation of the posterior crural muscle, the degenerated and/or necrotic muscle area ratio of the gastrocnemius muscle was determined. […]

Structures are written as SMILES.

For the molecule `O=C(O)c1cc(-c2ccco2)nc2ccc3nn(-c4ccccc4)nc3c12` [Compound 133, 7-(furan-2-yl)-2-phenyl-2H-[1,2,3]triazolo[4,5-f]quinoline-9-carboxylic acid], the “inhibition of degeneration and/or necrosis of the diaphragm” value was determined as 40% and the “inhibition of degeneration and/or necrosis of the gastrocnemius muscle” value is listed as 49%.
